Measurements: patent publication US9392789B2, “Compositions of dibromomalonamide and their use as biocides” (Dow Global Technologies LLC, priority 2009, dated 2016)
Values joined by “and” are separate entries in the source; they are usually repeats but may differ in a detail not shown here. Equal entries are not always repeated.

System: mixture of Pseudomonas aeruginosa, Klebsiella pneumoniae, Staphylococcus aureus, and Bacillus subtilis
Assay: Growth inhibition assay (microtiter plate-based synergy assay)
Format: cell-based
Conditions: 24 h; for I90 value: single active, concentration for ~90% inhibition of growth
From the text: Growth Inhibition Assay. […] Regardless of the mechanism of action, the impact of a biocide (or combination of biocides) can be measured over time on the basis of an increase in the size of the community.
The assay measures the efficacy of one or more biocides at preventing growth of a consortium of bacteria in a dilute mineral salts medium. The medium contains (in mg/l) the following components: FeCl3.6H2O (1); CaCl2.2H2O (10); MgSO4.7H2O (22.5); (NH4)2SO4 (40); KH2PO4 (10); K2HPO4 (25.5); Yeast Extract (10); and glucose (100). After all components are added to deionized water, the pH of the medium is adjusted to 7.5. Following filter sterilization, aliquots are dispensed in 100 ul quantities to sterile microtiter plate wells. Dilutions of 2,2-dibromomalonamide (“DBMAL”) and/or “Biocide B” are then added to the microtiter plate. After preparing the combinations of actives as illustrated below, each well is inoculated with 100 μl of a cell suspension containing ca. 1×10^6 cells per milliliter of a mixture of Pseudomonas aeruginosa, Klebsiella pneumoniae, Staphylococcus aureus, and Bacillus subtilis. The final total volume of medium in each well is 300 μl. Once prepared as described herein, the concentration of each active ranges from 25 ppm to 0.195 ppm as illustrated in Table 1. The resulting matrix allows testing of eight concentrations of each active and 64 combinations of actives in the ratios (of actives).
Controls (not shown) contain the medium with no biocide added. After preparing the combinations of actives as illustrated above, each well is inoculated with 100 μl of a cell suspension containing ca. 1×10^6 cells per milliliter of a mixture of Pseudomonas aeruginosa, Klebsiella pneumoniae, Staphylococcus aureus, and Bacillus subtilis. The final total volume of medium in each well is 300 μl.
Immediately after the microtiter plates are prepared, the optical density (OD) readings for each well is measured at 580 nm and the plates are then incubated at 37° C. for 24 hr. After the incubation period, the plates are gently agitated before OD580 values are collected. The OD580 values at T0 are subtracted from T24 values to determine the total amount of growth (or lack thereof) that occurs. These values are used to calculate the percent inhibition of growth caused by the presence of each biocide and each of the 64 combinations. A 90% inhibition of growth is used as a threshold for calculating synergy index (SI) values with the following equation: Synergy Index=MDBMAL/CDBMAL+MB/CB
where • CDBMAL: Concentration of DBMAL required to inhibit ˜90% of bacterial growth when used alone • CB: Concentration of biocide (B) required to inhibit ˜90% of bacterial growth when used alone. • MDBMAL: Concentration of DBMAL required to inhibit ˜90% of bacterial growth when used in combination with biocide (B). • MB: Concentration of biocide (B) required to inhibit ˜90% of bacterial growth when used in combination with DBMAL The SI values are interpreted as follows: • SI<1: Synergistic combination • SI=1: Additive combination • SI>1: Antagonistic combination
In the Examples below, the amounts of biocides in the solution are measured in mg per liter of solution (mg/l). Since solution densities are approximately 1.00, the mg/l measurement corresponds to weight ppm. Both units may therefore be used interchangeably in the Examples.

| Compound | % Inhibition of growth (single active at 0.19 mg/l) [%] | % Inhibition of growth (single active at 0.39 mg/l) | % Inhibition of growth (single active at 0.78 mg/l) [%] | % Inhibition of growth (single active at 1.56 mg/l) [%] | % Inhibition of growth (single active at 3.13 mg/l) [%] | % Inhibition of growth (single active at 6.25 mg/l) [%] | % Inhibition of growth (single active at 12.5 mg/l) | % Inhibition of growth (single active at 25.0 mg/l) [%] | inhibition at 12.5 µg/mL (single active at 12.5 mg/l) [%] | inhibition at 25 µg/mL (single active at 25.0 mg/l) [%] | I90 value [mg/L] | inhibition at 7.81 µg/mL (single active at 7.81 mg/l) [%] | inhibition at 15.63 µg/mL (single active at 15.63 mg/l) [%] | inhibition at 31.25 µg/mL (single active at 31.25 mg/l) [%] | inhibition at 62.5 µg/mL (single active at 62.5 mg/l) [%] | inhibition at 125 µg/mL (single active at 125 mg/l) [%] | inhibition at 250 µg/mL (single active at 250 mg/l) [%] | inhibition at 500 µg/mL (single active at 500 mg/l) [%] | inhibition at 1000 µg/mL (single active at 1,000 mg/l) [%] |
| --- | --- | --- | --- | --- | --- | --- | --- | --- | --- | --- | --- | --- | --- | --- | --- | --- | --- | --- | --- |
| OBr [HOBr, hypobromous acid] | 0 | 0% | 0 | 0 | 22 | 57 | 99% | 100 |  |  |  |  |  |  |  |  |  |  |  |
| NC(=O)C(Br)(Br)C(N)=O [DBMAL, 2,2-dibromomalonamide] |  | 4% and 0% and 5% and 8% and 2% |  |  |  | 9 | 99% and 92% |  | 100 | 98 | 12.5 |  |  |  |  |  |  |  |  |
| [O][Cl+][O-] [ClO2, chlorine dioxide] | 12 | 26% | 35 | 63 | 75 | 99 | 100% | 98 |  |  |  |  |  |  |  |  |  |  |  |
| O=c1nc([O-])n(Cl)c(=O)n1Cl.[Na+] [DCI, dichloroisocyanurate] | 0 | 0% | 0 | 98 | 100 | 97 | 100% | 100 |  |  |  |  |  |  |  |  |  |  |  |
| CC1(C)C(=O)N(Cl)C(=O)N1Br [BCDMH, bromochlorodimethylhydantoin] | 0 | 0% | 5 | 0 | 2 | 100 | 98% | 99 |  |  |  |  |  |  |  |  |  |  |  |
| NCl [NH2Cl, monochloramine] | 4 | 0% | 2 | 97 | 96 | 94 | 97% | 95 |  |  | 1.56 |  |  |  |  |  |  |  |  |
| O=c1n(Cl)c(=O)n(Cl)c(=O)n1Cl [TCI, trichloroisocyanurate] | 0 | 0% | 0 | 97 | 96 | 99 | 97% | 94 |  |  |  |  |  |  |  |  |  |  |  |
| OO [H2O2, hydrogen peroxide] |  |  |  |  |  |  |  |  |  |  |  | 5 | 2 | 0 | 12 | 6 | 1 | 100 | 89 |
